Among the data in patent US8138218B2, “Growth hormone secretagogues” (Ipsen Pharma S.A.S., priority 2005, dated 2012) are Ki values, retold here.

The target in the assay is T1, human growth hormone secretagogue receptor-1a (hGHS-R1a) (Homo sapiens, UniProt Q92847).
T1 construct: The full length hGHS-R1a was subcloned into the mammalian expression vector pcDNA 3.1; expressed in transfected cells
Description: hGHS-R1a binding assay, (125I)ghrelin displacement on CHO-K1 cell membranes. The following applies: membranes of CHO-K1 cells expressing hGHS-R1a; 0.05 nM (125I)ghrelin; sixty minute incubation at 4° C. The text has this: A. Preparation of CHO-K1 cells expressing the human recombinant GHS receptor-1a
The cDNA for human growth hormone secretagogue receptor-1a (hGHS-R1a) was cloned by Polymerase Chain Reaction (PCR) using human brain RNA as a template (Clontech®, Palo Alto, Calif.), gene specific primers flanking the full-length coding sequence of hGHS-R1a, (S: 5′-[…]-3′ and AS: 5′-[…]-3′), and an Advantage 2 PCR Kit® (Clontech®). The PCR product was cloned into the pCR2.1 vector using an Original TA Cloning Kit® (Invitrogen®, Carlsbad, Calif.). The full length hGHS-R1a was subcloned into the mammalian expression vector pcDNA 3.1 (Invitrogen®, Carlsbad, Calif.). The plasmid was transfected into the Chinese hamster ovary cell line, CHO-K1 (American Type Culture Collection®, Rockville, Md.), by calcium phosphate method (Wigler, M et al., Cell, (1977), 11:223). Single cell clones stably expressing the hGHS-R1a were obtained by selecting transfected cells grown in cloning rings in RPMI 1640 media supplemented with 10% fetal bovine serum and 1 mM sodium pyruvate containing 0.8 mg/ml G418 (Gibco®, Grand Island, N.Y.).
B. hGHS-R1a Binding Assay:
Membranes for radioligand binding studies can be and were prepared by homogenization of the foregoing CHO-K1 cells expressing the hGHS-R1a in 20 ml of ice-cold 50 mM Tris-HCl with a Brinkman Polytron® (Westbury, N.Y.) (setting 6, 15 sec). The homogenates were washed twice by centrifugation (39,000 g/10 min) and the final pellets were re-suspended in 50 mM Tris-HCl containing 2.5 mM MgCl2 and 0.1% BSA. For the assay, aliquots (0.4 ml) were incubated with 0.05 nM (^125I)ghrelin (˜2000 Ci/mmol)(Perkin Elmer Life Sciences®, Boston, Mass.) with and without 0.05 ml of unlabeled competing test compounds of the invention. After a sixty minute incubation at 4° C., the bound (^125I)ghrelin was separated from the free by rapid filtration through GF/C filters (Brandel®, Gaithersburg, Md.) which were previously soaked in 0.5% polyethyleneimine/0.1% BSA. The filters were then washed three times with 5-ml aliquots of ice-cold 50 mM Tris-HCl and 0.1% bovine serum albumin and the bound radioactivity trapped on the filters was counted by gamma spectrometry (Wallac LKB®, Gaithersburg, Md.). Specific binding was defined as the total (^125I)ghrelin bound minus that bound in the presence of 1000 nM ghrelin

T1 sequence (Q92847 whole entry): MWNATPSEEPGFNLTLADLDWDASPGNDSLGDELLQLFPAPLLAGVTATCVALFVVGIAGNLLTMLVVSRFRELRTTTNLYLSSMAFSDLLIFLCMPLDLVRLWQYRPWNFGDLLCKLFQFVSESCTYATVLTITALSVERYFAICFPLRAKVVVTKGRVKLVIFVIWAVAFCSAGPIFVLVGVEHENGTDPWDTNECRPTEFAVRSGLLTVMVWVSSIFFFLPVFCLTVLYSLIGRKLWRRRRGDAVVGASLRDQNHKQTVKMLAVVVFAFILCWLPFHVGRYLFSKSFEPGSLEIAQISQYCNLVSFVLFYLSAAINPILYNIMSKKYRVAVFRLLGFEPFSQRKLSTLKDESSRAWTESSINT

For orientation: Ki means a measure of affinity in units of concentration, obtained from inhibition or displacement. A higher Ki goes with a looser hold on the target. Take `CC(=O)N[C@@H](Cc1c[nH]c2ccccc12)NC(=O)[C@@H](Cc1csc2ccccc12)NC(=O)C(C)(C)N` [#11, Aib-D-Bal-DgTrp-C(O)CH3]: the Ki turned out to be 0.0382 µM.

Turning to `CC(C)(N)C(=O)N[C@H](Cc1cccc2ccccc12)C(=O)N[C@H](Cc1csc2ccccc12)NC=O` [#6], the Ki came to 0.1 µM. `CCC(=O)N[C@@H](Cc1c[nH]c2ccccc12)NC(=O)[C@@H](Cc1csc2ccccc12)NC(=O)C(C)(C)N` [#50] came in with a Ki of 0.0615 µM. Molecule `CC(C)(N)C(=O)N[C@H](Cc1csc2ccccc12)C(=O)N[C@H](Cc1cccc2ccccc12)NC=O` [#2] registered a Ki of 0.236 µM. With `CC(C)(N)C(=O)N[C@H](Cc1cccc2ccccc12)C(=O)N[C@H](Cc1c[nH]c2ccccc12)NC=O` [#65] the figure was 0.0168 µM; with `CC(C)(C)C(=O)N[C@@H](Cc1c[nH]c2ccccc12)NC(=O)[C@@H](Cc1csc2ccccc12)NC(=O)C(C)(C)N` [#52], 0.0651 µM. `CC(C)(N)C(=O)N[C@H](Cc1csc2ccccc12)C(=O)N[C@H](Cc1c[nH]c2ccccc12)NC=O` [#1, Aib-D-Bal-DgTrp-CHO] returned a Ki of 0.015 µM. Compared with the last molecule, the Ki is about 4.3-fold lower.

Molecule `CC(C)C(=O)N[C@@H](Cc1c[nH]c2ccccc12)NC(=O)[C@@H](Cc1csc2ccccc12)NC(=O)C(C)(C)N` [#51] came in with a Ki of 0.0202 µM. The same measure for `CC(=O)N[C@H](Cc1c[nH]c2ccccc12)NC(=O)[C@@H](Cc1csc2ccccc12)NC(=O)C(C)(C)N` [#12]: 0.00256 µM; for `O=CN[C@@H](Cc1c[nH]c2ccccc12)NC(=O)[C@@H](Cc1csc2ccccc12)NC(=O)C1CCNCC1` [#18]: 0.12 µM. The same measure for `CC(C)(N)C(=O)N[C@H](Cc1csc2ccccc12)C(=O)N[C@H](Cc1csc2ccccc12)NC=O` [#4]: 0.0921 µM; for `CC(C)(N)C(=O)N[C@H](Cc1ccc2ccccc2c1)C(=O)N[C@H](Cc1csc2ccccc12)NC=O` [#7]: 0.226 µM; for `O=CN[C@@H](Cc1ccc2ccccc2c1)NC(=O)[C@@H](Cc1csc2ccccc12)NC(=O)C1CCNCC1` [#20]: 0.133 µM. With `CC(C)(N)C(=O)N[C@H](Cc1csc2ccccc12)C(=O)N[C@@H](Cc1c[nH]c2ccccc12)OC(=O)C(F)(F)F` [#73] the figure was 0.093 µM; with `CC(C)(N)C(=O)N[C@H](Cc1c[nH]c2ccccc12)C(=O)N[C@H](Cc1csc2ccccc12)NC=O` [#5], 0.279 µM.
